According to patent US20160158240A1, “Compositions Containing Defined Caffeine and Theobromine Levels with Enhanced Cognitive Properties” (The Hershey Company, priority 2014, published 2016):

Experiments:
brain blood flow = settings: study using 6 participants; cited from earlier work
[1] = system: subjects with a caffeine habit; experiment: fMRI connectivity and brain blood flow analysis after test beverage; type: in vivo, human; settings: subject that routinely ingests caffeine; brain regions consistent with caffeine cravings; FIG. 1 and FIG. 3
Excerpt: Measurement or detection of changes in the brain can be done using functional MRI (fMRI) and functional brain network analyses as known in the art. The following is an exemplary study using known techniques based upon fMRI scanning of human brains.
These examples represent an intervention study (number of subjects=24) with a randomized controlled, double-blind, placebo-controlled crossover design. The study is designed to ensure completion of all possibilities in the order of delivering the test samples, i.e. each subject is administered each of the possible test beverages in different order. […] For initial baseline testing, subjects undergo 16 hours of caffeine and chocolate withdrawal for a baseline testing and then participate in four separate brain scanning visits over 5-10 weeks. Study participants are ideally healthy adults 18-55 who consume moderate (200-500 mg) amounts of caffeine daily. […] As determined from a medical screening session, any subjects with active neurological dysfunction (such as a major Axis I psychopathology, Alzheimer's disease, Parkinson's disease, prior history of stroke, epilepsy, or serious CNS trauma, ADHD, migraines, hypertension, diabetes, peripheral vascular disease, or taking vasoactive medications, such as antihypertensive medications) are excluded from the study. […]

Cn1c(=O)c2c(ncn2C)n(C)c1=O [Caffeine, caffeine]
brain blood flow difference between caffeine and theobromine (brain blood flow): 5.03 ml/100 gm tissue/min
change in blood flow/connectivity by fMRI [1]: reduction in blood flow/connectivity
